Source: ChEMBL document CHEMBL1201862, “PubChem BioAssay data set” (2004)
Active and inactive are the calls of the source.

Tests used:
[1] = HEK-293T viability loss after treatment – luminescence, T-cell screen hits, cytotoxicity control for TCR NF-kB inhibitor project, dose response (AID 489026); format: functional, cell-based;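 also: cells exposed to compound about 14 hours before the viability readout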
[2] = microbe, parasite or virus in culture; format: functional; conditions: Mycobacterium tuberculosis
[3] = biological target: Voltage-dependent T-type calcium channel subunit alpha-1H (Homo sapiens, UniProt O95180); format: functional;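 also: channel activity triggered by adding a high calcium stimulation buffer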
Protein skinhead-1 = biological target: T1, Protein skinhead-1 (Caenorhabditis elegans, UniProt P34707); format: functional
T1 sequence (P34707 whole entry): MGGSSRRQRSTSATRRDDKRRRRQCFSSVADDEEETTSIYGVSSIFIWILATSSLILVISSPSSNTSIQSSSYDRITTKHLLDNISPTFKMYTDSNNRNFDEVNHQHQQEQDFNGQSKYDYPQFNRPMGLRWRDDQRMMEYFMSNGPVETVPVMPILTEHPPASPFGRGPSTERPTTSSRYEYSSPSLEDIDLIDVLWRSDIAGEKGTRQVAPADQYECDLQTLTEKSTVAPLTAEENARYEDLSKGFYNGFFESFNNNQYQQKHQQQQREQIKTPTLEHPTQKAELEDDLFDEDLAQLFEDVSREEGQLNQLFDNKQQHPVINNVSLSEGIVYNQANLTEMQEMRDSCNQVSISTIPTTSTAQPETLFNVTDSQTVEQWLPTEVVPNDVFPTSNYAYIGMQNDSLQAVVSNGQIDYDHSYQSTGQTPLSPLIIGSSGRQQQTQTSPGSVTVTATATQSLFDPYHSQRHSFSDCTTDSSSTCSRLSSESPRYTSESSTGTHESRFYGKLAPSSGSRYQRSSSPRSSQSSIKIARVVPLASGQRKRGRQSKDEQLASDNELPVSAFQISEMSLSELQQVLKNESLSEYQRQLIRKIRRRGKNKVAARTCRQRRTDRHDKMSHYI

H9c2 = test: cells; format: functional, cell-based; conditions: Rattus norvegicus, H9c2, Myocardium;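 also: confirmatory concentration-response retest of ultra-high-throughput screening hits for modulation of myocardial damage; cell death induced by hydrogen peroxide oxidative stress; compound pretreatment for 60 min then peroxide exposure for 2 h; potency is for protecting the cells against peroxide damage rather than for killing them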
H4 = test: Luminescence Cell-Based Dose Response HTS to Identify Activators of 5'UTR Stem-Loop Driven Prion Protein mRNA Translation in H4 Neuroglioblastoma Cells. [Related pubchem assays: 1829 (Project Summary), 1814 (Primary HTS)]; format: functional; conditions: Homo sapiens
[4] = Luminescence Cell-Based Dose Confirmation HTS to Identify Activators of 5'UTR Stem-Loop Driven Alpha-Synuclein mRNA Translation in H4 Neuroglioblastoma Cells. [Related pubchem assays: 1829 (Project Summary), 1814 (Primary HTS)]; format: functional
Nonstructural protein 1 = Nonstructural protein 1 (Influenza A virus, UniProt Q194T2); format: functional, Influenza A virus (A/California/07/2009(H1N1))
[5] = Luminescence Cell-Based Dose Response HTS to Identify Activators of Luciferase Translation or Activity in H4 […] Cells. [Related pubchem assays: 1829 (Project Summary), 1814 (Primary HTS)]; format: functional
Cytochrome P450 2D6 = Cytochrome P450 2D6 (Homo sapiens, UniProt P10635);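 also: CYP2D6 member of a cytochrome P450 panel assay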
[6] = biological target: T2, Carboxy-terminal domain RNA polymerase II polypeptide A small phosphatase 1 (Homo sapiens, UniProt Q9GZU7); test: CTDSP1 inhibitors, concentration-response, biochemical, absorbance readout, ultra-high-throughput screen actives (AID 540297); format: functional
T2 sequence (Q9GZU7 whole entry): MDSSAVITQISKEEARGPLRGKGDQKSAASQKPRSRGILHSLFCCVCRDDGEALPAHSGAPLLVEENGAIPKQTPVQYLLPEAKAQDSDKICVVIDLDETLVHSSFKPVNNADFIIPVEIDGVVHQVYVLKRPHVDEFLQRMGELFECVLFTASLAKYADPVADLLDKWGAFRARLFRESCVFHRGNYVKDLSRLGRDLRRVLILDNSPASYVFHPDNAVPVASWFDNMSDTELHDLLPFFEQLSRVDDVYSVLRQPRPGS

[7] = Trypanosoma cruzi growth suppression in host cells – NIH3T3 host cells, beta-gal luminescence, confirmation (AID 2044); format: functional, cell-based;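 also: intracellular parasites grown in NIH/3T3 mouse fibroblasts as host cells; luminescent beta-galactosidase reporter signal from transgenic T. cruzi replicating inside host cells; inhibitors lower the luminescence signal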
[8] = NIH3T3 cell viability loss – ATP luminescence, mouse fibroblasts, counter-screen, dose response (AID 2010); format: functional, cell-based;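 also: cells exposed to compound for about 90 hours before reading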
Cytochrome P450 1A2 = biological target: T3, Cytochrome P450 1A2 (Homo sapiens, UniProt P05177);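 also: PubChem cytochrome P450 panel assay, CYP1A2 panel member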
T3 sequence (P05177 whole entry): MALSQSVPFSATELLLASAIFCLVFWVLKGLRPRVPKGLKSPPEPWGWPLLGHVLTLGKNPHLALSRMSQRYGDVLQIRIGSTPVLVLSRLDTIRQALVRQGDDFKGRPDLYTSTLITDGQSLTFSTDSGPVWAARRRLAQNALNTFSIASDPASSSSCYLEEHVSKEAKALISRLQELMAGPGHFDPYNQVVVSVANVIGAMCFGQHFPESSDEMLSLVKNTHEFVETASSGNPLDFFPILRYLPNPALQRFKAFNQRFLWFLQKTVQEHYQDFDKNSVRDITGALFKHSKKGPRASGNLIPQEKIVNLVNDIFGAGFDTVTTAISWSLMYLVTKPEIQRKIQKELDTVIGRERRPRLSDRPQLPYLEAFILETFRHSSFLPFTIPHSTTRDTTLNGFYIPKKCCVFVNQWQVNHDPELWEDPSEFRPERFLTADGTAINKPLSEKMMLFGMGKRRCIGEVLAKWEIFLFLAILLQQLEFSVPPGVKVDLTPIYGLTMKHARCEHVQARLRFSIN

Cytochrome P450 2C19 = Cytochrome P450 2C19 (Homo sapiens, UniProt P33261); test: Cytochrome panel assay with activity outcomes. Panel member name: p450-cyp2c19 Compounds with AC50 equal or less than 10 uM are considered active; format: functional; conditions: read-out: AC50
[9] = blockade of melanocortin 4 receptor signaling – cell-based, plate reader, cherry pick, counter-screen for LGR2 antagonist project, dose response (AID 743444); format: functional;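 also: transfected HEK 293 cells stimulated with alpha-MSH peptide; potency of inhibitors of the alpha-MSH evoked signal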
[10] = toxicity toward HepG2 liver cells – cell-based, plate reader, cherry-pick, antagonist series, cytotoxicity control, dose response (AID 743416); format: functional
[11] = blockers of bursicon-stimulated LGR2 cAMP reporter – cell-based, HEK293, CRE-luciferase reporter, cherry pick, set 2, dose response (AID 743343); format: functional;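 also: transfected cells were stimulated with diluted bursicon conditioned medium after compound addition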
cells [12] = format: functional, cell-based
cells [13] = format: functional, cell-based; remark: listed apart in the source
INS1 = test: INS-1E survival protection against cytokine death – cell-based, luminescence, retest, dose response (AID 449756); format: functional; conditions: Rattus norvegicus;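 also: cell death triggered by IL-1 beta plus TNF-alpha plus IFN-gamma mixture; protective hits raise ATP signal compared with cytokine alone wells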

Chain of Voltage-dependent T-type calcium channel subunit alpha-1H (O95180 whole entry): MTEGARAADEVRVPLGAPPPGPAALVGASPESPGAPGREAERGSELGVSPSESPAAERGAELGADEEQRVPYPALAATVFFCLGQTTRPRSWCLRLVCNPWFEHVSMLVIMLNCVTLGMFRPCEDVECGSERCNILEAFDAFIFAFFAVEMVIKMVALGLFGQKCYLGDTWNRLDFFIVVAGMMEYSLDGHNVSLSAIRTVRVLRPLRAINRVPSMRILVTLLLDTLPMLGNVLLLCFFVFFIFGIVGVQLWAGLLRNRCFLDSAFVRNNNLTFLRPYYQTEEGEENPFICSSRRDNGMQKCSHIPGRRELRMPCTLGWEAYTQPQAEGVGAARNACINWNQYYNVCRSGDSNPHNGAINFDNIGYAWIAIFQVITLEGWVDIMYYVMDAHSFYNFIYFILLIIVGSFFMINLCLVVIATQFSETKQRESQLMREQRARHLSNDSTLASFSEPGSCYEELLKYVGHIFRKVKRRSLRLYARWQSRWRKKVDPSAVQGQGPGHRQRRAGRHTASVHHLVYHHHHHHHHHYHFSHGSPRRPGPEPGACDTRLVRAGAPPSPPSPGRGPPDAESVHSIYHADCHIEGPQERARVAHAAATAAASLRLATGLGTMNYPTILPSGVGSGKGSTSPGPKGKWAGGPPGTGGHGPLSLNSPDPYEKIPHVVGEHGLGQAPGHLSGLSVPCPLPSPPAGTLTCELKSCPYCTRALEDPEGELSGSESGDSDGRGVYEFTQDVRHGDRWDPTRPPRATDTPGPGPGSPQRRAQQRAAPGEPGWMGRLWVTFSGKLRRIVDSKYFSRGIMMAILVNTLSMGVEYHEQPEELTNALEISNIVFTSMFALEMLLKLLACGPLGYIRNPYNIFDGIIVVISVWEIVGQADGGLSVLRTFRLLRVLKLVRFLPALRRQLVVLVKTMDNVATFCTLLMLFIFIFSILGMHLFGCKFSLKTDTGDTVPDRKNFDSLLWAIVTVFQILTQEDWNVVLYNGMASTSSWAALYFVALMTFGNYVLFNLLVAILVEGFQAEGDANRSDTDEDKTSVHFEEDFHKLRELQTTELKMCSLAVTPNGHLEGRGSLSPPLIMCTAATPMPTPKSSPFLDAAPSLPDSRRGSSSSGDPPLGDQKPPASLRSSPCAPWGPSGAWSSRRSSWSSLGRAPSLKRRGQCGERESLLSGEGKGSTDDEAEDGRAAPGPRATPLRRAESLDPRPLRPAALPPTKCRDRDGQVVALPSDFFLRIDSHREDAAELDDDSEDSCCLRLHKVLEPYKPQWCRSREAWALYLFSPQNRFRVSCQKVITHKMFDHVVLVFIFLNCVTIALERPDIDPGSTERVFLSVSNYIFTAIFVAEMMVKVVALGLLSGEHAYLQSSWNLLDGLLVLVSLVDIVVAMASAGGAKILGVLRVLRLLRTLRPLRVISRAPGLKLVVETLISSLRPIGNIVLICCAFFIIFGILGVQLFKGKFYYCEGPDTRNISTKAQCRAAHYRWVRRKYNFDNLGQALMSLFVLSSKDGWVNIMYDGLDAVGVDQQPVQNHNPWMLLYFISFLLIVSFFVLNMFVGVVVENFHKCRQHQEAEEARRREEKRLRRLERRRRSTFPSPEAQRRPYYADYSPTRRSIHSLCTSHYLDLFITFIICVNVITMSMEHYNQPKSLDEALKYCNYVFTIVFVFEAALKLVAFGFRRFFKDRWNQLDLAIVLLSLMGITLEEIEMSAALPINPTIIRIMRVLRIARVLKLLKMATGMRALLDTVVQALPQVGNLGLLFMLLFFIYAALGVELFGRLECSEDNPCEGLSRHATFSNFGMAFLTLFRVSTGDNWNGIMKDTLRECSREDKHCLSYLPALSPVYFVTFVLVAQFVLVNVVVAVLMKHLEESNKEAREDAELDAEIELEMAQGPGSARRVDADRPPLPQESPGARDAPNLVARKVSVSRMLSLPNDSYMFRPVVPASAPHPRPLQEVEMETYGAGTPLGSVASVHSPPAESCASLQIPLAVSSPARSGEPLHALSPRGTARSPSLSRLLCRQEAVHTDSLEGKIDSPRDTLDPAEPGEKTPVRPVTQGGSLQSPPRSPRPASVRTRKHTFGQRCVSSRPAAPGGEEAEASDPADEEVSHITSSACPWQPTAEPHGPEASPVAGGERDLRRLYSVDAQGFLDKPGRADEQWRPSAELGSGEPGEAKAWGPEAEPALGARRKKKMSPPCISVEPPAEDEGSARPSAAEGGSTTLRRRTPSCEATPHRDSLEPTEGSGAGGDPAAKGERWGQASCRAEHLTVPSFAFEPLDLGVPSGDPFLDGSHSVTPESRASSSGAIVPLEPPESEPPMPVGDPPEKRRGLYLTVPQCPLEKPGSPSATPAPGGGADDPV
Chain of Nonstructural protein 1 (Q194T2 whole entry): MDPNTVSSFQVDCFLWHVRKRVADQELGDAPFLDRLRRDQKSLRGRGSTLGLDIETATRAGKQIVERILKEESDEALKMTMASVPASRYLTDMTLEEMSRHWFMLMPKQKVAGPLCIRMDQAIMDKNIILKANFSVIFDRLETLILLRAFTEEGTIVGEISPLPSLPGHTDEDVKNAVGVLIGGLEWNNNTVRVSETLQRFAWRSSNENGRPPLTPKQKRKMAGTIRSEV
Chain of Cytochrome P450 2C19 (P33261 whole entry): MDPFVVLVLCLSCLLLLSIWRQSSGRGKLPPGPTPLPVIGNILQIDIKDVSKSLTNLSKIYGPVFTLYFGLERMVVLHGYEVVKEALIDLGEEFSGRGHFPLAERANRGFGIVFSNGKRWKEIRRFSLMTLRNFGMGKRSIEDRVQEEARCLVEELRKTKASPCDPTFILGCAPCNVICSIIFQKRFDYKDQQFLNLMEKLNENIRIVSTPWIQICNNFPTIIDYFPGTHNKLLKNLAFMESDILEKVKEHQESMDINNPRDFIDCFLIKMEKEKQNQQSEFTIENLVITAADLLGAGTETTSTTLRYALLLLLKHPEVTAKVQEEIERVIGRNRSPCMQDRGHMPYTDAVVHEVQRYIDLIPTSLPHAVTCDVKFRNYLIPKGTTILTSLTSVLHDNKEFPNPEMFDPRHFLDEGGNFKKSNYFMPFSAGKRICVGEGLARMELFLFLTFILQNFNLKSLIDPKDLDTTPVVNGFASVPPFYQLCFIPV
Chain of Cytochrome P450 2D6 (P10635 whole entry, the tested form may be a part): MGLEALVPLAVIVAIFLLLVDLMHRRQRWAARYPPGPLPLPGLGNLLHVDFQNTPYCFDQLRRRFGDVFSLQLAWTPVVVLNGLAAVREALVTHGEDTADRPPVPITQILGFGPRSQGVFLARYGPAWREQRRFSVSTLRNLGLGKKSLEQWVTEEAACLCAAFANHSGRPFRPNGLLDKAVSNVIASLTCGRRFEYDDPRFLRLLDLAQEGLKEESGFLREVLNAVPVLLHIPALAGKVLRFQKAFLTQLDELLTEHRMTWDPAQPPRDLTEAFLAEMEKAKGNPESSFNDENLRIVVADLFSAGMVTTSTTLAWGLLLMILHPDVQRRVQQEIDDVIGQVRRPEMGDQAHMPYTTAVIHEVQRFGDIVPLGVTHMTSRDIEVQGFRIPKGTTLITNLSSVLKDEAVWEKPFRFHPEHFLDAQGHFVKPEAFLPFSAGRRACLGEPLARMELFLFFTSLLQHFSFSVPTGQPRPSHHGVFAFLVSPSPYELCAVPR

Structure (SMILES): O=C(Nc1cccc2ccccc12)OC1C=CS(=O)(=O)C1 (configuration not stated)
- IC50 [1]: > 80 µM (inactive)

Structure (SMILES): COc1ccc(-c2cc(C(=O)N(C)CC(=O)Nc3cccc(F)c3)c3ccccc3n2)cc1
- CC50 [2]: 36.5 µM (active)

Structure (SMILES): O=C(CN(Cc1ccccc1)C(=O)c1cc2c(s1)CCC2)NCc1cccs1
- EC50 [3]: 5.32 µM (active)

Structure (SMILES): COC(=O)c1nc(-c2ccccc2)oc1N(C)C
- IC50 (Protein skinhead-1): > 100 µM (inactive)

Structure (SMILES): O=C(COc1ccccc1)Nc1nnc(-c2ccc(Cl)s2)o1
- EC50 [3]: 25.7 µM (active)

Structure (SMILES): O=C(Oc1ccccc1)N1CCN(c2ccc(F)cc2)CC1
- IC50 (Protein skinhead-1): 78.7 µM (inactive)

Structure (SMILES): COc1ccc(-c2cc(-c3nnc(COC(=O)c4ccncc4)o3)c3ccccc3n2)cc1OC
- IC50 (H9c2): 9.82 µM (active)

Structure (SMILES): S=C(NCc1ccccc1)NCC1COc2ccccc2O1 (configuration not stated)
- EC50 [3]: 3.17 µM (active)

Structure (SMILES): C=CCNc1ncnc2sc(SC)nc12
- IC50 (Protein skinhead-1): > 100 µM (inactive)

Structure (SMILES): Cc1ccc(C)c(CSc2nc(O)c3c[nH]nc3n2)c1
- IC50 [1]: > 80 µM (inactive)

Structure (SMILES): O=C(Nc1nccs1)c1ccc(-c2ccccc2[N+](=O)[O-])o1
- IC50 (Protein skinhead-1): > 100 µM (inactive)

Structure (SMILES): CC#CC(=O)N1CCC(n2nccc2NC(=O)c2ccc3c(c2)OCO3)CC1
- IC50 [1]: > 80 µM (inactive)

Structure (SMILES): O=C(CN1C(=O)COc2ccccc21)Nc1ccc(F)cc1
- EC50 (H4): 113 µM (active)
- EC50 [4]: 11.9 µM (active)
- IC50 (Nonstructural protein 1): 3.73 µM (active)
- EC50 [5]: 13.8 µM (active)

Structure (SMILES): c1ccc(CN2c3ccccc3-c3nc4ccccc4n3C2c2ccccn2)cc1 (configuration not stated)
- EC50 [3]: 1.94 µM (active)
- AC50 (Cytochrome P450 2D6): 15.8 µM (inconclusive)

Structure (SMILES): Cc1cccc2sc(NC(=O)C3CCN(S(=O)(=O)c4cc([N+](=O)[O-])ccc4Cl)CC3)nc12
- IC50 [6]: 3.44 µM (active)
- EC50 [7]: 0.63 µM (active)
- EC50 [8]: > 30 µM (not active)

Structure (SMILES): Oc1ccccc1C=NNC(=S)Nc1ccc(F)cc1
- IC50 (Nonstructural protein 1): 12.7 µM (active)

Structure (SMILES): COc1cccc(/C=N/NC(=O)c2nc(-c3ccccc3)cc(-c3ccccc3)n2)c1
- AC50 (Cytochrome P450 1A2): 3.16 µM (inconclusive)
- AC50 (Cytochrome P450 2C19): 0.794 µM (inconclusive)
- IC50 (H9c2): > 79 µM (inactive)

Structure (SMILES): N#C[C@@H]1[C@H](c2ccc(C#Cc3cccc(F)c3)cc2)[C@@H](CO)N1C(=O)C1CCCC1
- AC50 [9]: 8.4 µM (active)
- AC50 [10]: 27.1 µM (active)
- AC50 [11]: 16.5 µM (active)

Structure (SMILES): CCN(CC)c1ccc(/C=N/NC(=O)c2cccc(S(=O)(=O)Nc3ccccc3OC)c2)c(O)c1
- EC50 (cells [12]): 85.3 µM (active)
- IC50 [1]: > 80 µM (inactive)
- EC50 (cells [13]): 2.89 µM (active)
- AC50 (INS1): 0.237 µM (active)
